Source: patent publication US12565505B2, “mTORC modulators and uses thereof” (Aeovian Pharmaceuticals, Inc., priority 2019, dated 2026)

Assays:
[1] = molecular target: T1, mTORC1 (Homo sapiens, UniProt P42345+P62942); assay: Inhibition assay for mTORC1: phosphorylation of pS6K at Thr389, AlphaLISA SureFire in PC3 cells; assay type: cell-based; conditions: PC3 cells, 24 hours treatment, pS6K Thr389; analogs substituted at C40 and C16 (C16 diastereomer mixtures not isolated); read-out: pIC50 mTORC1 (converted)
T1 construct: endogenous in cells; host or cells: PC3 cells (human prostate adenocarcinoma)
How it was run: (§1)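 Human prostate adenocarcinoma PC3 cells treated with compounds for 24 h. AlphaLISA SureFire read-out of pS6K Thr389 for mTORC1 and pAkt Ser473 for mTORC2, from which IC50s were derived.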

[2] = molecular target: T2, mTORC2 (Homo sapiens, UniProt P42345+P62942); assay: Inhibition assay for mTORC2: phosphorylation of pAkt at Ser473, AlphaLISA SureFire in PC3 cells; assay type: cell-based; conditions: PC3 cells, 24 hours treatment, analogs substituted at C40 and C16 (C16 diastereomer mixtures not isolated), read-out: pIC50 mTORC2 (converted)
T2 construct: endogenous in cells; host or cells: PC3 cells (human prostate adenocarcinoma)
How it was run: as §1

IC50 [1] [µM]	IC50 [2] [µM]	Structure (SMILES)
< 0.000316	1 to 10	COCCOC1C[C@@H]2CC[C@@H](C)[C@@](O)(O2)C(=O)C(=O)N2CCCCC2C(=O)O[C@H]([C@H](C)C[C@@H]2CC[C@@H](OCCCN3C[C@@H](C)O[C@@H](C)C3)[C@H](OC)C2)CC(=O)[C@H](C)/C=C(\C)[C@@H](O)[C@@H](OC)C(=O)[C@H](C)C[C@H](C)/C=C/C=C/C=C/1C (some centres unmarked) [Compound 59]
< 0.000316	1 to 10	COCCOC1C[C@@H]2CC[C@@H](C)[C@@](O)(O2)C(=O)C(=O)N2CCCCC2C(=O)O[C@H]([C@H](C)C[C@@H]2CC[C@@H](OCCCO)[C@H](OC)C2)CC(=O)[C@H](C)/C=C(\C)[C@@H](O)[C@@H](OC)C(=O)[C@H](C)C[C@H](C)/C=C/C=C/C=C/1C (some centres unmarked) [Compound 28]
< 0.000316	1 to 10	COCCOC1C[C@@H]2CC[C@@H](C)[C@@](O)(O2)C(=O)C(=O)N2CCCCC2C(=O)O[C@H]([C@H](C)C[C@@H]2CC[C@@H](OCCCN3CCCCC3)[C@H](OC)C2)CC(=O)[C@H](C)/C=C(\C)[C@@H](O)[C@@H](OC)C(=O)[C@H](C)C[C@H](C)/C=C/C=C/C=C/1C (some centres unmarked) [Compound 35]
< 0.000316	> 10	CO[C@@H]1C[C@H](C[C@@H](C)[C@@H]2CC(=O)[C@H](C)/C=C(\C)[C@@H](O)[C@@H](OC)C(=O)[C@H](C)C[C@H](C)/C=C/C=C/C=C(\C)C(OCCO)C[C@@H]3CC[C@@H](C)[C@@](O)(O3)C(=O)C(=O)N3CCCCC3C(=O)O2)CC[C@H]1OCCN1CCOCC1 (some centres unmarked) [Compound 8]
